System: K98450-129-R-PDC complex spheroid growth, percent test/control
Assay: Anticancer human tumor K98450-129-R-PDC patient-derived colon adenocarcinoma cell line growth inhibition [RAS]
Conditions: for IC50: curve of first compound; for viability, T/C: stronger effect = lower value
Outline: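 Tumour cells grown as complex spheroids with HUVEC endothelial cells and mesenchymal stem cells, treated with RAS pathway inhibitor combinations. Each agent spans half-log steps from near clinical Cmax, or 10 microM where Cmax is unknown.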

[1] = second compound 0.000949 µM, first compound 0.00316 µM
[2] = second compound 0.000949 µM, first compound 0.01 µM
[3] = second compound 0.000949 µM, first compound 0.0316 µM
[4] = second compound 0.000949 µM, first compound 0.1 µM
[5] = second compound 0.000949 µM, first compound 0.316 µM
[6] = second compound 0.000949 µM, first compound 1 µM
[7] = second compound 0.003 µM, first compound 0.00316 µM
[8] = second compound 0.003 µM, first compound 0.01 µM
[9] = second compound 0.003 µM, first compound 0.0316 µM
[10] = second compound 0.003 µM, first compound 0.1 µM
[11] = second compound 0.003 µM, first compound 0.316 µM
[12] = second compound 0.003 µM, first compound 1 µM
[13] = second compound 0.00949 µM, first compound 0.00316 µM
[14] = second compound 0.00949 µM, first compound 0.01 µM
[15] = second compound 0.00949 µM, first compound 0.0316 µM
[16] = second compound 0.00949 µM, first compound 0.1 µM
[17] = second compound 0.00949 µM, first compound 0.316 µM
[18] = second compound 0.00949 µM, first compound 1 µM
[19] = second compound 0.03 µM, first compound 0.00316 µM
[20] = second compound 0.03 µM, first compound 0.01 µM
[21] = second compound 0.03 µM, first compound 0.0316 µM
[22] = second compound 0.03 µM, first compound 0.1 µM
[23] = second compound 0.03 µM, first compound 0.316 µM
[24] = second compound 0.03 µM, first compound 1 µM
[25] = second compound 0.0949 µM, first compound 0.00316 µM
[26] = second compound 0.0949 µM, first compound 0.01 µM
[27] = second compound 0.0949 µM, first compound 0.0316 µM
[28] = second compound 0.0949 µM, first compound 0.1 µM
[29] = second compound 0.0949 µM, first compound 0.316 µM
[30] = second compound 0.0949 µM, first compound 1 µM
[31] = second compound 0.3 µM, first compound 0.00316 µM
[32] = second compound 0.3 µM, first compound 0.01 µM
[33] = second compound 0.3 µM, first compound 0.0316 µM
[34] = second compound 0.3 µM, first compound 0.1 µM
[35] = second compound 0.3 µM, first compound 0.316 µM
[36] = second compound 0.3 µM, first compound 1 µM
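Note: spheroids exposed to agents for seven days before the viability readout.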
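Throughout, for viability, T/C: luminescence used as a proxy for viable cell amount.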

C=CC(=O)N1CCN(c2nc(OCC3CCCN3C)nc3c(F)c(-c4nc(N)cc(C)c4C(F)(F)F)c(Cl)cc23)C(C)C1 (stereo not drawn) + CCn1c(-c2cc(N3CCN(C)CC3)cnc2C(C)OC)c2c3cc(ccc31)-c1csc(n1)CC(NC(=O)C1CC1C)C(=O)N1CCCC(N1)C(=O)OCC(C)(C)C2
IC50 (second compound 0.000949 µM): 90.6 nM
IC50 (second compound 0.003 µM): 52.7 nM
IC50 (second compound 0.00949 µM): 30.4 nM
IC50 (second compound 0.03 µM): < 3.16 nM
IC50 (second compound 0.0949 µM): < 3.16 nM
IC50 (second compound 0.3 µM): < 3.16 nM
viability, T/C [1]: 88%
viability, T/C [2]: 71.2%
viability, T/C [3]: 69%
viability, T/C [4]: 44.4%
viability, T/C [5]: 40.1%
viability, T/C [6]: 34.5%
viability, T/C [7]: 88%
viability, T/C [8]: 68.5%
viability, T/C [9]: 55.6%
viability, T/C [10]: 41.8%
viability, T/C [11]: 42.1%
viability, T/C [12]: 34.8%
viability, T/C [13]: 72.7%
viability, T/C [14]: 61.7%
viability, T/C [15]: 49.8%
viability, T/C [16]: 37.2%
viability, T/C [17]: 29.1%
viability, T/C [18]: 20%
viability, T/C [19]: 44.8%
viability, T/C [20]: 46.3%
viability, T/C [21]: 37.3%
viability, T/C [22]: 19.8%
viability, T/C [23]: 20.9%
viability, T/C [24]: 18.1%
viability, T/C [25]: 16.1%
viability, T/C [26]: 16.9%
viability, T/C [27]: 14.4%
viability, T/C [28]: 14.7%
viability, T/C [29]: 14.3%
viability, T/C [30]: 12%
viability, T/C [31]: 10.9%
viability, T/C [32]: 10.5%
viability, T/C [33]: 11.6%
viability, T/C [34]: 10.3%
viability, T/C [35]: 11.7%
viability, T/C [36]: 12.4%

CC1(C)CCC(Nc2ncc(C(F)(F)F)c(-c3c[nH]c4c(P(C)(C)=O)c(C#N)ccc34)n2)CN1 (stereo not drawn) + CCn1c(-c2cc(N3CCN(C)CC3)cnc2C(C)OC)c2c3cc(ccc31)-c1csc(n1)CC(NC(=O)C1CC1C)C(=O)N1CCCC(N1)C(=O)OCC(C)(C)C2
IC50 (second compound 0.000949 µM): > 300 nM
IC50 (second compound 0.003 µM): > 300 nM
IC50 (second compound 0.00949 µM): > 300 nM
IC50 (second compound 0.03 µM): > 300 nM
IC50 (second compound 0.0949 µM): < 0.949 nM
IC50 (second compound 0.3 µM): < 0.949 nM
viability, T/C (second compound 0.000949 µM, first compound 0.000949 µM): 100%
viability, T/C (second compound 0.000949 µM, first compound 0.003 µM): 82.2%
viability, T/C (second compound 0.000949 µM, first compound 0.00949 µM): 96.2%
viability, T/C (second compound 0.000949 µM, first compound 0.03 µM): 89.7%
viability, T/C (second compound 0.000949 µM, first compound 0.0949 µM): 80.8%
viability, T/C (second compound 0.000949 µM, first compound 0.3 µM): 79.5%
viability, T/C (second compound 0.003 µM, first compound 0.000949 µM): 81.2%
viability, T/C (second compound 0.003 µM, first compound 0.003 µM): 83.2%
viability, T/C (second compound 0.003 µM, first compound 0.00949 µM): 85.6%
viability, T/C (second compound 0.003 µM, first compound 0.03 µM): 94.6%
viability, T/C (second compound 0.003 µM, first compound 0.0949 µM): 77.2%
viability, T/C (second compound 0.003 µM, first compound 0.3 µM): 69.4%
viability, T/C (second compound 0.00949 µM, first compound 0.000949 µM): 75.2%
viability, T/C (second compound 0.00949 µM, first compound 0.003 µM): 77.1%
viability, T/C (second compound 0.00949 µM, first compound 0.00949 µM): 76.7%
viability, T/C (second compound 0.00949 µM, first compound 0.03 µM): 77.8%
viability, T/C (second compound 0.00949 µM, first compound 0.0949 µM): 81.7%
viability, T/C (second compound 0.00949 µM, first compound 0.3 µM): 60.2%
viability, T/C (second compound 0.03 µM, first compound 0.000949 µM): 54.1%
viability, T/C (second compound 0.03 µM, first compound 0.003 µM): 49.5%
viability, T/C (second compound 0.03 µM, first compound 0.00949 µM): 51.2%
viability, T/C (second compound 0.03 µM, first compound 0.03 µM): 61.7%
viability, T/C (second compound 0.03 µM, first compound 0.0949 µM): 63.1%
viability, T/C (second compound 0.03 µM, first compound 0.3 µM): 43.8%
viability, T/C (second compound 0.0949 µM, first compound 0.000949 µM): 24.6%
viability, T/C (second compound 0.0949 µM, first compound 0.003 µM): 26.8%
viability, T/C (second compound 0.0949 µM, first compound 0.00949 µM): 30.6%
viability, T/C (second compound 0.0949 µM, first compound 0.03 µM): 35.1%
viability, T/C (second compound 0.0949 µM, first compound 0.0949 µM): 40.3%
viability, T/C (second compound 0.0949 µM, first compound 0.3 µM): 37%
viability, T/C (second compound 0.3 µM, first compound 0.000949 µM): 12.7%
viability, T/C (second compound 0.3 µM, first compound 0.003 µM): 14.7%
viability, T/C (second compound 0.3 µM, first compound 0.00949 µM): 17.9%
viability, T/C (second compound 0.3 µM, first compound 0.03 µM): 23.5%
viability, T/C (second compound 0.3 µM, first compound 0.0949 µM): 28.4%
viability, T/C (second compound 0.3 µM, first compound 0.3 µM): 25.2%

C=CC(=O)Nc1cc(Nc2nccc(-c3cn(C)c4ccccc34)n2)c(OC)cc1N(C)CCN(C)C + CCn1c(-c2cccnc2C(C)OC)c2c3cc(ccc31)N1CCOC(CC(NC(=O)C(C(C)C)N(C)C(=O)C3(F)CCN(C(=O)C#CC(C)(C)N(C)C)CC3)C(=O)N3CCCC(N3)C(=O)OCC(C)(C)C2)C1
IC50 (second compound 0.000949 µM): 85 nM
IC50 (second compound 0.003 µM): 21.5 nM
IC50 (second compound 0.00949 µM): < 3.16 nM
IC50 (second compound 0.03 µM): < 3.16 nM
IC50 (second compound 0.0949 µM): < 3.16 nM
IC50 (second compound 0.3 µM): < 3.16 nM
viability, T/C [1]: 76.9%
viability, T/C [2]: 63.9%
viability, T/C [3]: 77.4%
viability, T/C [4]: 44.5%
viability, T/C [5]: 20.1%
viability, T/C [6]: 8.96%
viability, T/C [7]: 59.5%
viability, T/C [8]: 51.5%
viability, T/C [9]: 48.8%
viability, T/C [10]: 24.4%
viability, T/C [11]: 14.3%
viability, T/C [12]: 10.2%
viability, T/C [13]: 39.2%
viability, T/C [14]: 41.6%
viability, T/C [15]: 28.4%
viability, T/C [16]: 20.9%
viability, T/C [17]: 11.1%
viability, T/C [18]: 8.95%
viability, T/C [19]: 37%
viability, T/C [20]: 30.9%
viability, T/C [21]: 28.4%
viability, T/C [22]: 18.1%
viability, T/C [23]: 9.5%
viability, T/C [24]: 9.54%
viability, T/C [25]: 34%
viability, T/C [26]: 32.4%
viability, T/C [27]: 26.2%
viability, T/C [28]: 16.2%
viability, T/C [29]: 11%
viability, T/C [30]: 9%
viability, T/C [31]: 34%
viability, T/C [32]: 28.9%
viability, T/C [33]: 25.3%
viability, T/C [34]: 16.5%
viability, T/C [35]: 10.1%
viability, T/C [36]: 9.52%

O=C(c1ccc(F)c(F)c1Nc1ccc(I)cc1F)N1CC(O)([C@@H]2CCCCN2)C1 + CCn1c(-c2cccnc2C(C)OC)c2c3cc(ccc31)N1CCOC(CC(NC(=O)C(C(C)C)N(C)C(=O)C3(F)CCN(C(=O)C#CC(C)(C)N(C)C)CC3)C(=O)N3CCCC(N3)C(=O)OCC(C)(C)C2)C1
IC50 (second compound 0.000949 µM): 64.7 nM
IC50 (second compound 0.003 µM): 9.15 nM
IC50 (second compound 0.00949 µM): < 3.16 nM
IC50 (second compound 0.03 µM): < 3.16 nM
IC50 (second compound 0.0949 µM): < 3.16 nM
IC50 (second compound 0.3 µM): < 3.16 nM
viability, T/C [1]: 76.5%
viability, T/C [2]: 53.9%
viability, T/C [3]: 63.3%
viability, T/C [4]: 42.2%
viability, T/C [5]: 6.87%
viability, T/C [6]: 2.59%
viability, T/C [7]: 57.1%
viability, T/C [8]: 44.8%
viability, T/C [9]: 40.7%
viability, T/C [10]: 18%
viability, T/C [11]: 6.5%
viability, T/C [12]: 2.42%
viability, T/C [13]: 41.7%
viability, T/C [14]: 32%
viability, T/C [15]: 22%
viability, T/C [16]: 14.2%
viability, T/C [17]: 5.98%
viability, T/C [18]: 2.66%
viability, T/C [19]: 27.4%
viability, T/C [20]: 33.5%
viability, T/C [21]: 25.5%
viability, T/C [22]: 11%
viability, T/C [23]: 6.18%
viability, T/C [24]: 2.44%
viability, T/C [25]: 28.3%
viability, T/C [26]: 24.3%
viability, T/C [27]: 19.7%
viability, T/C [28]: 10.6%
viability, T/C [29]: 5.39%
viability, T/C [30]: 2.34%
viability, T/C [31]: 28.5%
viability, T/C [32]: 26.5%
viability, T/C [33]: 21.9%
viability, T/C [34]: 10.1%
viability, T/C [35]: 4.51%
viability, T/C [36]: 2.36%
